According to patent US11185539B2 (priority 2017, dated 2021):

What was measured:
CDR1 mRNA = type: cell-based, human; details: Lycorine 5 μM, others 1 μM, 24 h, vs DMSO
Description: Expression levels of CDR1 mRNA change independently of miR-671-5p or CDR1as in primary HCFs upon treatment with Bufalin, Gitoxigenin, Lycorine, Anisomycin and Geldanamycin. HCFs were incubated for 24 h with Bufalin (1 μM), Gitoxigenin (1 μM,) Lycorine (5 μM), Anisomycin (1 μM) and Geldanamycin (1 μM) and impact on CDR1 mRNA level (normalized to GAPDH) by the respective compound was validated via qRT-PCR (see FIG. 23).

[1] = Plasma markers of kidney and liver damage, angiotensin II model; type: in vivo, mice; details: Bufalin 0.5, Gitoxigenin 0.01, Lycorine 4.5, Anisomycin 10 mg/kg i.p. every other day; day 14
Description: HF was induced in mice (Example 3) and Bufalin (0.5 mg/kg), Gitoxigenin (0.01 mg/kg), Lycorine (4.5 mg/kg), and Anisomycin (10 mg/kg) were injected as indicated in Example 3. Fourteen days after the operation, EDTA-plasma samples were drawn (n=2-3 per group) (see FIGS. 26 and 27).

[2] = tested on: C57BL/6 mice with angiotensin II-induced diastolic heart failure; assay: Echocardiography in murine model of angiotensin II-induced cardiac fibrotic disease (two weeks); type: in vivo; details: i.p. every other day, Bufalin 0.5, Lycorine 4.5, Anisomycin 10, Gitoxigenin 0.01 mg/kg, day 14
Description: Diastolic heart failure (HF) was induced in C57BL/6 mice via implantation of angiotensin II filled minipumps. Male C57BL/6 mice 8-10 weeks old were used in the present invention being based on a C57BL/6N-background (Charles River, Germany).
For implantation of angiotension II filled minipumps, Angiotensin-II is applied by osmotic minipumps for two weeks (Alzet® [Modell 1001]). The recommended dose amounts for 1.5 or 3.0 mg/kg/per day. The minipumps are filled under sterile conditions with Angiotensin-II or with isotonic saline solution functioning as a control substance. Implantation takes place under intraperitoneal injection anaesthesia. […] Mice are then fixed on a pre-heated operating table and are provided with Bepanthen eye salve against drying out of the conjunctives. The operating field is located in the right caudal third of the back. It is shaved and desinfected with Braunol, afterwards it is coated with a 0.5% Lidocain-solution. After a period of one hour implantation can be started. The skin is cut through vertical to the back line, preferably the length is one centimeter. A pocket from the cutting line to cranial is subcutaneously formed. Herein, the minipumps are injected. Afterwards, the skin is then closed with a 5-0 Prolene string with interrupted sutures. Then, the closed wound is coated again with Braunol. For preventing hypothermia mice wake up in their cages, which are placed up to one-third on a terrarium-warming mat with regulated temperatures of 37°. Surgery amounts for 5 minutes/per animal.
Next, the natural compounds (Bufalin, Gitoxigenin, Lycorine, and Anisomycin) were injected intraperitoneally every other day during two consecutive weeks starting two days after the operation (see FIG. 6). DMSO was also injected into C57BL/6 mice with induced cardiac remodeling as a control. Cardiac function was assessed echocardiographically and fibrosis-development via collagen staining with picosirius-red in histological sections of the hearts (Example 4).
Diastolic HF was induced in C57BL/6 mice and the natural compounds were injected as indicated in Example 3. Fourteen days after the operation, cardiac function of the mice was assessed echocardiographically (n=9-15 per group) by treating the mice with said compounds (Bufalin: 0.5 mg/kg, Lycorine 4.5 mg/kg, Anisomycin: 10 mg/kg and Gitoxigenin: 0.01 mg/kg). A decrease of the Myocardial Performance Index (MPI) as well as a reduction of the isovolumetric relaxation time (IVRT) and an increase in E to A peak ratio (E/A) (the ratio of the early (E) to late (A) ventricular filling velocities as a marker of the function of the left ventricle of the heart) indicate improvement of both global (MPI) and diastolic (IVRT and E/A) function of the heart (see FIGS. 7 and 9).

primary HCFs = assay: Cell death in HCFs, FACS after Annexin-7AAD-staining; type: cell-based, human; details: Lycorine 5 μM, Bufalin, Gitoxigenin, Anisomycin 1 μM, 24 h
Description: HCFs and HL-1 cells were treated with Bufalin, Gitoxigenin, Lycorine and Anisomycin for 24 h with the same concentrations as indicated in Example 1 and proliferation of HCFs and cardiomyocyte cell line HL-1 cells was measured by BrdU-ELISA, DMSO refers as a control (see FIG. 2B, 3B, 4B, 5B). The cell proliferation ELISA is a colorimetric alternative to quantitate cell proliferation based on the measurement of BrdU incorporation during DNA synthesis in proliferating cells. After its incorporation into DNA, BrdU is detected by immunoassay by using antibodies being highly specific for BrdU. First, HCFs and/or HL-1 cells are cultured together with various dilutions of test substances (e.g. mitogens, growth factors, cytokines and test compounds such as Bufalin, Gitoxigenin, Lycorine and Anisomycin as mentioned above etc.) in a 96-well in a final volume of 100 μl/well in a humified atmosphere of 37° C. Afterwards, 10 μl/well BrdU labeling solution is added to the cells being cultured in 100 μl/well (final concentration: 10 μM BrdU). Then, cells were re-incubated for additional 2 to 24 h at 37° C. Next, labeling solution is removed and 200 μl/well FixDenat is added to the cells and incubated for 30 min at 15 to 25° C. Then, 100 μl/well anti-BrdU-POD working solution is added and incubated for approximately 90 min, after FixDenat is removed. Next, antibody conjugate is removed and wells are washed with 200 μl-300 μl/well Washing solution (PBS, 1×). After the washing solution is removed, 100 μl/well Substrate solution is added and it is incubated again until color development is sufficient for photometric detection. Further, HCFs were treated with said compounds (Lycorine: 5 μM, Bufalin: 1 μM, Gitoxigenin: 1 μM and Anisomycin: 1 μM) for 24 h as indicated again and subjected to FACS analysis after Annexin-7AAD-staining (see FIG. 2C, 3C, 4C, 5C). After the treatment with said compounds, annexin-7AAD-staining starts with inducing apoptosis in HCFs by a desired method, known to the person skilled in the art, a negative control (w/o induction and staining) and a positive control (f. ex. 500 μM H2O2 or 3 μM Staurosporin) is also needed. Then, the medium with HCFs is transferred into a falcon, washed with PBS and trypsinized. Everything is centrifuged for 5 min at 300×g and then the supernatant is aspirated. The pellet is re-suspended in 200 μl Annexin Red/7AAD Working Solution (1:20, 5 μl Annexin Red/7AAD+195 μl 1× Assay Buffer) and transferred into an Easy Cap Eppendorf tube. After incubation of 15 min at 37° C., it is centrifuged at room temperature (RT) for 5 min at 300×g. […] Samples are now ready for acquisition on a flow cytometer (blue and red laser).

| SMILES | expression levels of CDR1 mRNA (normalized to GAPDH) (CDR1 mRNA) | plasma marker of kidney and liver damage (GOT, GPT, creatinine, urea) [1] | E to A peak ratio (E/A) [2] | Myocardial Performance Index (MPI) [2] | isovolumetric relaxation time (IVRT) [2] | cell death in primary HCFs (Annexin-7AAD-staining) (primary HCFs) |
| --- | --- | --- | --- | --- | --- | --- |
| C[C@]12CC[C@H](O)C[C@H]1CC[C@@H]1[C@@H]2CC[C@]2(C)[C@@H](c3ccc(=O)oc3)CC[C@]12O [Bufalin] | decrease | no elevation | increase | decrease | reduction | does not induce cell death |
| C[C@]12CC[C@H](O)C[C@H]1CC[C@@H]1[C@@H]2CC[C@]2(C)[C@@H](C3=CC(=O)OC3)[C@@H](O)C[C@]12O [Gitoxigenin] | decrease | no elevation | increase | decrease | reduction | does not induce cell death |
| O[C@H]1[C@H]2c3cc4c(cc3CN3CCC(=C[C@@H]1O)[C@H]23)OCO4 [Lycorine] | decrease | no elevation | increase | decrease | reduction | does not induce cell death |
| COc1ccc(C[C@H]2NC[C@H](O)[C@H]2OC(C)=O)cc1 [Anisomycin] | decrease | no elevation | increase | decrease | reduction | does not induce cell death |
